Test results from US8575156B2, “Cyclic inhibitors of 11β-hydroxysteroid dehydrogenase 1” (Vitae Pharmaceuticals, Inc., priority 2007, dated 2013).
Like-named read-outs stand apart in the source and are kept apart here.

Target: 11β-HSD1 (Homo sapiens, UniProt P28845)
Experiment: biochemical
Conditions: for IC50: IC50 Range, Biological Test Example 1, microsomes from CHO cells overexpressing human 11β-HSD1; for inhibition at 0.1111 µM: read-out: Average % inhibition at 111.1 nM, Biological Test Example 1, 111.1 nM compound
[1] = read-out: Average % inhibition at 100 nM, Biological Test Example 1, 100 nM compound
[2] = read-out: Average % inhibition at 100 nM

Chain of 11β-HSD1 (P28845 whole entry): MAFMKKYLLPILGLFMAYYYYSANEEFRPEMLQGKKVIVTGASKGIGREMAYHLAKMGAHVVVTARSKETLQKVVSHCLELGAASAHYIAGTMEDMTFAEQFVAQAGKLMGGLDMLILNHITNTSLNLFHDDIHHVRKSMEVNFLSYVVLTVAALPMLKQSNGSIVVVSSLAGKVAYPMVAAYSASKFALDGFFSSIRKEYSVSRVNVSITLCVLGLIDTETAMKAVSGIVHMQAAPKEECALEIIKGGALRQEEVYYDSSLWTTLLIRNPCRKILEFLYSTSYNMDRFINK

Row | IC50 | inhibition at 0.1111 µM | inhibition at 0.1 µM [1] | Compound | inhibition at 0.1 µM [2]
1 | < 100 nM | 81.8% |  | C[C@@H](c1ccc(-c2ccc(F)cc2)cc1)N1CC[C@@](CCCO)(c2cccs2)OC1=O [EXAMPLE 166, (S)-3-((S)-1-(4′-fluorobiphenyl-4-yl)ethyl)-6-(3-hydroxypropyl)-6-(thiophen-2-yl)-1,3-oxazinan-2-one] | 
2 | < 100 nM |  | 97% | CC(O)C[C@]1(c2ccccc2)CCN([C@@H](C)c2ccc(-c3ccc(F)cc3F)cc2)C(=O)O1 (stereo partly drawn) [EXAMPLE 170, (6S)-3-((S)-1-(2′,4′-difluorobiphenyl-4-yl)ethyl)-6-(2-hydroxypropyl)-6-phenyl-1,3-oxazinan-2-one] | 
3 | 100 to 1000 nM | 48% |  | C[C@@H](c1ccc(-c2ccc(F)cc2F)cc1)N1CC[C@](CC(=O)O)(c2ccc(F)cc2)OC1=O [EXAMPLE 174, 2-((S)-3-((S)-1-(2′,4′-difluorobiphenyl-4-yl)ethyl)-6-(4-fluorophenyl)-2-oxo-1,3-oxazinan-6-yl)acetic acid] | 
4 | < 100 nM |  | 70.7% | C=CC[C@]1(c2ccc(F)cc2)CCN([C@@H](C)c2ccc(C#N)cc2)C(=O)O1 [EXAMPLE 192, 4-((S)-1-((R)-6-allyl-6-(4-fluorophenyl)-2-oxo-1,3-oxazinan-3-yl)ethyl)benzonitrile] | 
5 | < 100 nM |  | 96.8% | COc1ccc([C@H](C)N2CC[C@](CCO)(c3ccc(F)cc3)OC2=O)cc1 [EXAMPLE 195, (S)-6-(4-fluorophenyl)-6-(2-hydroxyethyl)-3-((S)-1-(4-methoxyphenyl)ethyl)-1,3-oxazinan-2-one] | 
6 | < 100 nM |  | 95.9% | C[C@@H](c1ccc(Cl)cc1)N1CC[C@](CCCO)(c2ccc(F)cc2)OC1=O [EXAMPLE 202, (R)-3-((1S)-1-(4-chlorophenyl)ethyl)-6-(4-fluorophenyl)-6-(3-hydroxypropyl)-1,3-oxazinan-2-one] | 
7 | < 100 nM |  | 79.1% | CC(O)CC1(C(C)C)CCN([C@@H](C)c2ccc(-c3ccc(F)cc3F)cc2)C(=O)O1 (stereo partly drawn) [EXAMPLE 213, 3-((1S)-1-(2′,4′-difluorobiphenyl-4-yl)ethyl)-6-(2-hydroxypropyl)-6-isopropyl-1,3-oxazinan-2-one] | 
8 | < 100 nM |  | 72.1% | C=CC[C@]1(c2ccc(F)cc2)CCN([C@@H](C)c2ccc(-c3nnc(C)o3)cc2)C(=O)O1 [EXAMPLE 215, (R)-6-allyl-6-(4-fluorophenyl)-3-((S)-1-(4-(5-methyl-1,3,4-oxadiazol-2-yl)phenyl)ethyl)-1,3-oxazinan-2-one] | 
9 | < 100 nM |  | 92.6% | C[C@@H](c1ccc(-c2cccs2)cc1)N1CC[C@](CCCO)(c2ccccc2)OC1=O [EXAMPLE 216, (R)-6-(3-hydroxypropyl)-6-phenyl-3-((S)-1-(4-(thiophen-2-yl)phenyl)ethyl)-1,3-oxazinan-2-one] | 
10 | < 100 nM |  | 88% | C=CC[C@]1(c2ccc(F)cc2)CCN([C@@H](C)c2ccc(N3CCOCC3)cc2)C(=O)O1 [EXAMPLE 217, (R)-6-allyl-6-(4-fluorophenyl)-3-((S)-1-(4-morpholinophenyl)ethyl)-1,3-oxazinan-2-one] | 
11 | < 100 nM |  | 97.3% | CC(O)C[C@]1(c2ccccc2)CCN([C@@H](C)c2ccc(-c3ccc(F)cc3)cc2)C(=O)O1 (stereo partly drawn) [EXAMPLE 224, (6S)-3-((1S)-1-(4′-fluorobiphenyl-4-yl)ethyl)-6-(2-hydroxypropyl)-6-phenyl-1,3-oxazinan-2-one] | 

Row | Compound | IC50 | inhibition at 0.1111 µM | inhibition at 0.1 µM [1] | inhibition at 0.1 µM [2]
12 | COCc1ccc([C@H](C)N2CC[C@](CCCO)(c3ccccc3)OC2=O)cc1 [EXAMPLE 199, (R)-6-(3-hydroxypropyl)-3-((S)-1-(4-(methoxymethyl)phenyl)ethyl)-6-phenyl-1,3-oxazinan-2-one] | < 100 nM |  |  | 90.3%
13 | CC[C@@H](c1ccc(Br)cc1)N1CC[C@](CCCO)(c2ccccc2)OC1=O [EXAMPLE 220, (R)-3-((S)-1-(4-bromophenyl)propyl)-6-(3-hydroxypropyl)-6-phenyl-1,3-oxazinan-2-one] | < 100 nM |  |  | 85.5%
